Legend:
Assay in all cases: KinomeScan
Type in all cases: binding
Conditions in all cases: read-out: % Ctrl @ 10000 nM
CLK2 = target: T1, CLK2 (Homo sapiens, UniProt P49760)
T1 construct: host or cells: T7 phage in E. coli host derived from BL21
Procedure, shortened: (§1)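 Lysates from phage-infected E. coli (32° C., shaking until lysis) were filtered and exposed to biotin-blocked ligand beads together with test compound. Eluted phage was counted by quantitative PCR.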

ADCK3 = target: T2, ADCK3 (Homo sapiens, UniProt Q8NI60)
T2 construct: host or cells: E. coli (BL21-derived), T7 phage lysate
Procedure, shortened: as §1

LOK = target: T3, LOK (Homo sapiens, UniProt O94804)
T3 construct: host or cells: E. coli host derived from the BL21 strain, infected with T7 phage
Procedure, shortened: as §1

LIMK1 = target: T4, LIMK1 (Homo sapiens, UniProt P53667)
T4 construct: host or cells: T7 phage grown in E. coli host derived from BL21
Procedure, shortened: as §1

CSNK2A2 = target: T5, CSNK2A2 (Homo sapiens, UniProt P19784)
T5 construct: purchased Ambit Biosciences Corp (KinomeScan); host or cells: T7 phage in E. coli host derived from BL21
Procedure, shortened: as §1

EGFR(G719C) = target: T6, EGFR(G719C) (Homo sapiens, UniProt P00533, G719C)
T6 construct: purchased Ambit Biosciences Corp (KinomeScan); host or cells: T7 phage in E. coli host derived from BL21
T6 sequence (P00533 25-1210 G719C): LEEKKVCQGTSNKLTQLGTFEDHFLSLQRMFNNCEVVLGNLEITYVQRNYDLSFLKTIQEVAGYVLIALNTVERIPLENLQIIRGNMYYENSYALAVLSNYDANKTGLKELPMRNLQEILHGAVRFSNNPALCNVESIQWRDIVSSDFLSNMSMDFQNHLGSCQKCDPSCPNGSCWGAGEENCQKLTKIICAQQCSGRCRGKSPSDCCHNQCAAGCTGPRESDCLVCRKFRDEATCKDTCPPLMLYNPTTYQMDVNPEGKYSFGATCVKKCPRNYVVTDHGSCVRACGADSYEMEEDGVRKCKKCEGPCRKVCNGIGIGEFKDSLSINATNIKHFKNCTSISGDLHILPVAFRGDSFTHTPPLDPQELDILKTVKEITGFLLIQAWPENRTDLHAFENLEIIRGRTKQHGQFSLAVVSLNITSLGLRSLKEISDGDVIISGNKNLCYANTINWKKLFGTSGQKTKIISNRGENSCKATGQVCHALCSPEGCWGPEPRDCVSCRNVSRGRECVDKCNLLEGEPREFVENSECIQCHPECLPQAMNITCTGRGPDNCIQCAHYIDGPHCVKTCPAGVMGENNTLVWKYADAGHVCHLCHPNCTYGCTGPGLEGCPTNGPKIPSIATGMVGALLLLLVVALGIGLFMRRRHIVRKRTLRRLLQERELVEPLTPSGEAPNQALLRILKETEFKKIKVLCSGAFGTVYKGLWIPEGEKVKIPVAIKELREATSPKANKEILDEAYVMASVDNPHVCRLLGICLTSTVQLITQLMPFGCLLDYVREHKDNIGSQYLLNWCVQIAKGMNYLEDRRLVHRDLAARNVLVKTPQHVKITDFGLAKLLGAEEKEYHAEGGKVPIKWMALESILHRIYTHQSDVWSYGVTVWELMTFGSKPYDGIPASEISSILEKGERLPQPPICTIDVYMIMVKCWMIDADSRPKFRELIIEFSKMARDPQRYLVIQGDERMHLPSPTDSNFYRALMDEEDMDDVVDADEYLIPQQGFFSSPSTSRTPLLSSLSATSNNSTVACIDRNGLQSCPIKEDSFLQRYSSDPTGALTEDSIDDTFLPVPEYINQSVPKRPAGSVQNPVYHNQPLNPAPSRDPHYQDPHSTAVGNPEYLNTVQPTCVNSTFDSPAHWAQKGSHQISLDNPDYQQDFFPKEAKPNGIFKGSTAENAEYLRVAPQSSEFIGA
Procedure, shortened: as §1

[1] = target: T7, RPS6KA4(Kin.Dom.-2-C-terminal) (Homo sapiens, UniProt O75676)
T7 construct: RPS6KA4(KIN.DOM.2); host or cells: E. coli host derived from BL21, T7 phage display
Procedure, shortened: as §1

EGFR(L747-T751del, Sins) = target: T8, EGFR(L747-T751del, Sins) (Homo sapiens, UniProt P00533, DEL747-750/T751S)
T8 construct: purchased Ambit Biosciences Corp; host or cells: T7 phage in E. coli host derived from BL21
Procedure, shortened: as §1

SgK110 = target: T9, SgK110 (Homo sapiens, UniProt P0C264)
T9 construct: host or cells: T7 phage grown in E. coli (BL21-derived)
Procedure, shortened: as §1

NEK2 = target: T10, NEK2 (Homo sapiens, UniProt P51955)
T10 construct: host or cells: T7 phage grown in E. coli host derived from BL21
Procedure, shortened: as §1

DRAK2 = target: T11, DRAK2 (Homo sapiens, UniProt O94768)
T11 construct: purchased Ambit Biosciences Corp (KinomeScan); host or cells: T7 phage in E. coli host derived from BL21
Procedure, shortened: as §1

GSK3A = target: T12, GSK3A (Homo sapiens, UniProt P49840)
T12 construct: host or cells: T7 phage in E. coli host derived from BL21
T12 sequence (P49840 whole entry): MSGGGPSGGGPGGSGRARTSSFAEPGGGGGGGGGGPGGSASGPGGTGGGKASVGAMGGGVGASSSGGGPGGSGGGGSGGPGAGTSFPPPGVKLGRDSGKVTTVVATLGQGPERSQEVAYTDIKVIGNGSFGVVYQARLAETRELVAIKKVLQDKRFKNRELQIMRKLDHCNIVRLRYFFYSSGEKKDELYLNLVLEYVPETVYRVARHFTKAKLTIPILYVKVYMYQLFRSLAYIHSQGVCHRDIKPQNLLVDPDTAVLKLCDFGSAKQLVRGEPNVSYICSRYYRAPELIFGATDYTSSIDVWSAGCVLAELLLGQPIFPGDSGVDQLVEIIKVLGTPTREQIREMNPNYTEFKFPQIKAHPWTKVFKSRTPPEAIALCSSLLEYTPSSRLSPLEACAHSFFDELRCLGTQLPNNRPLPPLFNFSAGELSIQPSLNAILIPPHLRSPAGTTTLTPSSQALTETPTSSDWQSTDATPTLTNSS
Procedure, shortened: as §1

MLK3 = target: T13, MLK3 (Homo sapiens, UniProt Q16584)
T13 construct: host or cells: T7 phage grown in E. coli host derived from BL21
Procedure, shortened: as §1

CDKL2 = target: T14, CDKL2 (Homo sapiens, UniProt Q92772)
T14 construct: host or cells: T7 phage in E. coli host derived from BL21
T14 sequence (Q92772 whole entry): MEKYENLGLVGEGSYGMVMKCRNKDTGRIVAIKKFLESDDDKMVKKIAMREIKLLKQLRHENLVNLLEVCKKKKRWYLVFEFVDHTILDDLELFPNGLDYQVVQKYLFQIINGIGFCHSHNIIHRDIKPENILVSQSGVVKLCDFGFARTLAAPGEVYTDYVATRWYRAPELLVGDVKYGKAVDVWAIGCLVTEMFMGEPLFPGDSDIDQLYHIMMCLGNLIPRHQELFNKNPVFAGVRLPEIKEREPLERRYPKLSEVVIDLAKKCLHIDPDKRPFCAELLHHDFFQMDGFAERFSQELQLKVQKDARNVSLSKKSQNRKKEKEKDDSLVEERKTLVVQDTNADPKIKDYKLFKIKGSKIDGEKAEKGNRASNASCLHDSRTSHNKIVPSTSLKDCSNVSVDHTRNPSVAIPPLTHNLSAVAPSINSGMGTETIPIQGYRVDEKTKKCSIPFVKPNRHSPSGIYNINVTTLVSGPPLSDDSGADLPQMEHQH
Procedure, shortened: as §1

CLK3 = target: T15, CLK3 (Homo sapiens, UniProt P49761)
T15 construct: host or cells: T7 phage in E. coli host derived from BL21
Procedure, shortened: as §1

MKNK1 = target: T16, MKNK1 (Homo sapiens, UniProt Q9BUB5)
T16 construct: host or cells: T7 phage grown in E. coli host derived from BL21
Procedure, shortened: as §1

p38-gamma = target: T17, p38-gamma (Homo sapiens, UniProt P53778)
T17 construct: host or cells: E. coli host derived from BL21, infected with T7 phage
T17 sequence (P53778 whole entry): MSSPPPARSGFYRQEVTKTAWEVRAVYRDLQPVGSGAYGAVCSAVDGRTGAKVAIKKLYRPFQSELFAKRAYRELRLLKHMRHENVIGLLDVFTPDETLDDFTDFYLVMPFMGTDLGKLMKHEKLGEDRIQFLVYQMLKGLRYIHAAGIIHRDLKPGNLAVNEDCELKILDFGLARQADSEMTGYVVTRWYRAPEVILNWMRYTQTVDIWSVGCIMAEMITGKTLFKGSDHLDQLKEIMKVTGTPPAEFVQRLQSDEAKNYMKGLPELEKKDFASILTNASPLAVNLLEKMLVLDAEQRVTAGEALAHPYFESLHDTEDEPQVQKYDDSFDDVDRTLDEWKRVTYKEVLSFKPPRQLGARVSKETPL
Procedure, shortened: as §1

PIM1 = target: T18, PIM1 (Homo sapiens, UniProt P11309)
T18 construct: host or cells: T7 phage in E. coli host derived from BL21
Procedure, shortened: as §1

FAK = target: T19, FAK (Homo sapiens, UniProt Q05397)
T19 construct: purchased Ambit Biosciences Corp; host or cells: T7 phage in E. coli host derived from BL21
Procedure, shortened: as §1

CSNK1E = target: T20, CSNK1E (Homo sapiens, UniProt P49674)
T20 construct: host or cells: T7 phage in E. coli host derived from BL21
Procedure, shortened: as §1

EPHA3 = target: T21, EPHA3 (Homo sapiens, UniProt P29320)
T21 construct: purchased Ambit Biosciences Corp; host or cells: T7 phage in E. coli host derived from BL21
Procedure, shortened: as §1

TSSK1B = target: T22, TSSK1B (Homo sapiens, UniProt Q9BXA7)
T22 construct: host or cells: E. coli host derived from BL21, T7 phage
T22 sequence (Q9BXA7 whole entry): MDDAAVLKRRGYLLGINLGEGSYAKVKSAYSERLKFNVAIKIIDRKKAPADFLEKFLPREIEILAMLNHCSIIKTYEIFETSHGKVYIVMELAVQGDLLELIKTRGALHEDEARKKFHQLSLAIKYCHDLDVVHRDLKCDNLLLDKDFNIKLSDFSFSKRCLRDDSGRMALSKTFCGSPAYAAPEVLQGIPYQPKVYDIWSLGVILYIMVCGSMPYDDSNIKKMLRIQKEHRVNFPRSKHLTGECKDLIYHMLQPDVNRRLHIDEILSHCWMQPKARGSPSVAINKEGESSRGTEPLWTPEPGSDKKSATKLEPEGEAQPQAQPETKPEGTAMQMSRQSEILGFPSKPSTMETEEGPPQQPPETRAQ
Procedure, shortened: as §1

GCN2(Kin.Dom.2.S808G) = target: T23, GCN2(Kin.Dom.2.S808G) (Homo sapiens, UniProt Q9P2K8, S808G)
T23 construct: GCN2(KIN.DOM.2, S808G); host or cells: T7 phage in E. coli host derived from BL21
T23 sequence (Q9P2K8 590-1001 S808G limits assumed): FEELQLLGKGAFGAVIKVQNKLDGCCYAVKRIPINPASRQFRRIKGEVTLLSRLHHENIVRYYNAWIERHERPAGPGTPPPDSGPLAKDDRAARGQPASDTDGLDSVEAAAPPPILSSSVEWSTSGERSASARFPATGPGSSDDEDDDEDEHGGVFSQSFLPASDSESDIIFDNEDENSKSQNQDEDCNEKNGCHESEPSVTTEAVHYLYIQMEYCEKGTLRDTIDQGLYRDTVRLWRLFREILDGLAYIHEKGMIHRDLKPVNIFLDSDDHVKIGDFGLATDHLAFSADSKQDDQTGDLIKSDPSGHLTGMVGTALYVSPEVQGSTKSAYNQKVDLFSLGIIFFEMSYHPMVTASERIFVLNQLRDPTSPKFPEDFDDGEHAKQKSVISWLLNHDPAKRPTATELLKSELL
Procedure, shortened: as §1

EGFR(L861Q) = target: T24, EGFR(L861Q) (Homo sapiens, UniProt P00533, L861Q)
T24 construct: purchased Ambit Biosciences Corp; host or cells: T7 phage in E. coli host derived from BL21
Procedure, shortened: as §1

LYN = target: T25, LYN (Homo sapiens, UniProt P07948)
T25 construct: host or cells: E. coli host derived from the BL21 strain, infected with T7 phage
Procedure, shortened: as §1

PRKR = target: T26, PRKR (Homo sapiens, UniProt P19525)
T26 construct: host or cells: T7 phage in E. coli host derived from BL21
T26 sequence (P19525 whole entry): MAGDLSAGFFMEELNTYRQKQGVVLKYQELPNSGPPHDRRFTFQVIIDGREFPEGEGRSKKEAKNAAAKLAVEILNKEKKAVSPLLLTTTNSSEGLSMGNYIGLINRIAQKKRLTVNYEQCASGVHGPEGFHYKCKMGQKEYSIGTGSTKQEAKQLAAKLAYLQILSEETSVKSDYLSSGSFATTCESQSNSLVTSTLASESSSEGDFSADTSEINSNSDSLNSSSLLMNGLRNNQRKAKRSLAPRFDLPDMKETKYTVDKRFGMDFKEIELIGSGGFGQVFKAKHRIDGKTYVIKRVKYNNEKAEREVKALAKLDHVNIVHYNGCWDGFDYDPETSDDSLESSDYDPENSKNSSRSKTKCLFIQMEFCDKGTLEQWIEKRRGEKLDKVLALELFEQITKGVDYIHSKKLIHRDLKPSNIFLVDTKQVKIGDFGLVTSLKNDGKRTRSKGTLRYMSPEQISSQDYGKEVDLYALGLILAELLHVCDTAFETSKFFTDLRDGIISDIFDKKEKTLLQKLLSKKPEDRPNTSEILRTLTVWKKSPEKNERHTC
Procedure, shortened: as §1

PIK3CA(E545K) = target: T27, PIK3CA(E545K) (Homo sapiens, UniProt P42336, E545K)
T27 construct: host or cells: E. coli host derived from BL21, infected with T7 phage
T27 sequence (P42336 whole entry E545K): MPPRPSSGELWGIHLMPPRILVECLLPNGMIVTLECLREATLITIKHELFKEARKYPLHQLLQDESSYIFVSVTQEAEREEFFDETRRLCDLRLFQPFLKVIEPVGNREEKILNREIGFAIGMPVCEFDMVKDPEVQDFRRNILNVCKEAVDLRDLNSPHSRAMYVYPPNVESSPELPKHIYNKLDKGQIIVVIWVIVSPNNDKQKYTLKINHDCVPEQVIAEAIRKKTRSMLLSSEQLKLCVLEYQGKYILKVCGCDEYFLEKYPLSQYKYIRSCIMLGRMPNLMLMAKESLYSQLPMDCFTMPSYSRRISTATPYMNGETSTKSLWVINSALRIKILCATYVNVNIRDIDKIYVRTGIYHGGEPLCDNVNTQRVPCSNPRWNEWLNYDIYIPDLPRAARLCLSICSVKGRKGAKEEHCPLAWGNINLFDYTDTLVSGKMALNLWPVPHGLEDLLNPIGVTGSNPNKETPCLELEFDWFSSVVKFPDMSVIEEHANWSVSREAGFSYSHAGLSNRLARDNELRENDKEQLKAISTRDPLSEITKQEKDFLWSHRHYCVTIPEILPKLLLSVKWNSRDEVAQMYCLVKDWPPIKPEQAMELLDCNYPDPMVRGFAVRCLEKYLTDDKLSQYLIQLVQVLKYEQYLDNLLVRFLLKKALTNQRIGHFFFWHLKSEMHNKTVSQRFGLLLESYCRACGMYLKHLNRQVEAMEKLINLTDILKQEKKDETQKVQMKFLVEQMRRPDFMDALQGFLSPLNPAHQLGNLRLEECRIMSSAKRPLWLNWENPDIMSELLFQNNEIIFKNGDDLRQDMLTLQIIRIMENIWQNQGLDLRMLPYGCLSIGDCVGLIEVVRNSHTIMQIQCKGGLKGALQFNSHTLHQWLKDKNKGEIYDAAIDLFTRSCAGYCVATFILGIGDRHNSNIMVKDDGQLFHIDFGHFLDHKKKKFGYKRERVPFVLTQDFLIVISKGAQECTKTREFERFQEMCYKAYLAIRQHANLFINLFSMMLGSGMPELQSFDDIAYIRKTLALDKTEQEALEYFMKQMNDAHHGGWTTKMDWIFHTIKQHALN
Procedure, shortened: as §1

ULK2 = target: T28, ULK2 (Homo sapiens, UniProt Q8IYT8)
T28 construct: host or cells: E. coli host derived from BL21, T7 phage
Procedure, shortened: as §1

BMPR1B = target: T29, BMPR1B (Homo sapiens, UniProt O00238)
T29 construct: host or cells: E. coli host derived from BL21
Procedure, shortened: as §1

PAK4 = target: T30, PAK4 (Homo sapiens, UniProt O96013)
T30 construct: host or cells: E. coli host derived from BL21, infected with T7 phage
Procedure, shortened: as §1

MARK4 = target: T31, MARK4 (Homo sapiens, UniProt Q96L34)
T31 construct: host or cells: E. coli host derived from the BL21 strain, infected with T7 phage
Procedure, shortened: as §1

ROCK2 = target: T32, ROCK2 (Homo sapiens, UniProt O75116)
T32 construct: host or cells: E. coli host derived from BL21, T7 phage display
Procedure, shortened: as §1

Question: Which remaining binding at 10 µM (CLK2) does the source give for `C#Cc1cccc(Nc2ncnc3cc(OC)c(OCCCN4CCOCC4)cc23)c1` [NRC-2694, N-(3-ethynylphenyl)-7-methoxy-6-[3-(4-morpholinyl)propoxy]-4-quinazolinamine] here?
Answer: 64%

Question: What about the remaining binding at 10 µM (ADCK3) of the same compound?
Answer: 14%

Question: What about the remaining binding at 10 µM (LOK) of the same compound?
Answer: 0%

Question: And the remaining binding at 10 µM (LIMK1)?
Answer: 62%

Question: What about the remaining binding at 10 µM (CSNK2A2) of the same compound?
Answer: 52%

Question: And the remaining binding at 10 µM (EGFR(G719C))?
Answer: 0%

Question: What about the remaining binding at 10 µM [1] of the same compound?
Answer: 8.9%

Question: What about the remaining binding at 10 µM (EGFR(L747-T751del, Sins)) of the same compound?
Answer: 0%

Question: What about the remaining binding at 10 µM (SgK110) of the same compound?
Answer: 83%

Question: And the remaining binding at 10 µM (NEK2)?
Answer: 63%

Question: And the remaining binding at 10 µM (DRAK2)?
Answer: 58%

Question: What about the remaining binding at 10 µM (GSK3A) of the same compound?
Answer: 75%

Question: And the remaining binding at 10 µM (MLK3)?
Answer: 72%

Question: What about the remaining binding at 10 µM (CDKL2) of the same compound?
Answer: 67%

Question: What about the remaining binding at 10 µM (CLK3) of the same compound?
Answer: 45%

Question: What about the remaining binding at 10 µM (MKNK1) of the same compound?
Answer: 1.2%

Question: And the remaining binding at 10 µM (p38-gamma)?
Answer: 97%

Question: And the remaining binding at 10 µM (PIM1)?
Answer: 39%

Question: What about the remaining binding at 10 µM (FAK) of the same compound?
Answer: 85%

Question: What about the remaining binding at 10 µM (CSNK1E) of the same compound?
Answer: 9.6%

Question: What about the remaining binding at 10 µM (EPHA3) of the same compound?
Answer: 56%

Question: What about the remaining binding at 10 µM (TSSK1B) of the same compound?
Answer: 93%

Question: What about the remaining binding at 10 µM (GCN2(Kin.Dom.2.S808G)) of the same compound?
Answer: 12%

Question: And the remaining binding at 10 µM (EGFR(L861Q))?
Answer: 0%

Question: What about the remaining binding at 10 µM (LYN) of the same compound?
Answer: 13%

Question: What about the remaining binding at 10 µM (PRKR) of the same compound?
Answer: 51%

Question: And the remaining binding at 10 µM (PIK3CA(E545K))?
Answer: 100%

Question: And the remaining binding at 10 µM (ULK2)?
Answer: 39%

Question: What about the remaining binding at 10 µM (BMPR1B) of the same compound?
Answer: 78%

Question: And the remaining binding at 10 µM (PAK4)?
Answer: 80%

Question: What about the remaining binding at 10 µM (MARK4) of the same compound?
Answer: 100%

Question: And the remaining binding at 10 µM (ROCK2)?
Answer: 38%

— patent US8921362B2, “6,7-dialkoxy quinazoline derivatives and methods of treating drug resistant and other tumors” (Natco Pharma Limited, priority 2008, dated 2014)
